Measurements published in publication PMC7470102, “Synthesis, anticancer evaluation and molecular docking studies of new benzimidazole- 1,3,4-oxadiazole derivatives as human topoisomerase types I poison” (Journal of Enzyme Inhibition and Medicinal Chemistry, 2020).
Where two headings read alike, the source gives them in different places.

Key:
[1] = test system: A549 (lung carcinoma cell line); test: MTT cytotoxicity assay, A549; assay type: cell-based; settings: read-out: IC50 against A549
Protocol: (§1) The anticancer activity of compounds 5a–5o were screened according to the MTT assays. The MTT assays were performed as previously described[32]^,[33]. Anticancer activity of final compounds was assessed against five different cancer cell lines A549 (lung carcinoma cell line), HeLa (cervical cell line), MCF-7 (human breast adenocarcinoma cell line), HepG2 (human liver carcinoma cell line) and C6 (rat glioma cell line) cell lines as well as NIH3T3 (mouse embryo fibroblast cell line). Doxorubicin and Hoechst 33342 were used as the reference drugs in the MTT assays.
(§2) The benzimidazole-1,3,4-oxadiazole derivatives (5a-5o) were tested their cytotoxic effects in vitro using five cancer cell line A549 (lung carcinoma cell line), HeLa (cervical cell line), MCF-7 (human breast adenocarcinoma cell line), HepG2 (human liver carcinoma cell line) and C6 (rat glioma cell line) cell lines as well as NIH3T3 (mouse embryo fibroblast cell line). Doxorubicin and Hoechst 33342 were used for this study as a reference drugs.

[2] = test system: MCF-7 (human breast adenocarcinoma cell line); test: MTT cytotoxicity assay, MCF-7; assay type: cell-based; settings: read-out: IC50 against MCF-7
Protocol: as §1, §2

[3] = test system: C6 (rat glioma cell line); test: MTT cytotoxicity assay, C6; assay type: cell-based; settings: read-out: IC50 against C6
Protocol: as §1, §2

[4] = test system: HepG2 (human liver carcinoma cell line); test: MTT cytotoxicity assay, HepG2; assay type: cell-based; settings: read-out: IC50 against HepG2
Protocol: as §1, §2

[5] = test system: HeLa (cervical cell line); test: MTT cytotoxicity assay, HeLa; assay type: cell-based; settings: read-out: IC50 against HeLa
Protocol: as §1, §2

[6] = test system: NIH3T3 (mouse embryo fibroblast cell line); test: MTT cytotoxicity assay, NIH3T3 healthy cells; assay type: cell-based; settings: read-out: IC50 against NIH3T3
Protocol: The anticancer activity of compounds 5a–5o were screened according to the MTT assays. The MTT assays were performed as previously described[32]^,[33]. Anticancer activity of final compounds was assessed against five different cancer cell lines A549 (lung carcinoma cell line), HeLa (cervical cell line), MCF-7 (human breast adenocarcinoma cell line), HepG2 (human liver carcinoma cell line) and C6 (rat glioma cell line) cell lines as well as NIH3T3 (mouse embryo fibroblast cell line). Doxorubicin and Hoechst 33342 were used as the reference drugs in the MTT assays. It is crucial that an anticancer agent affects the cancer cell line but having minimal or no side-effect on healthy cells. For this purpose, the cytotoxic effects of the active compounds on the NIH3T3 cell line were investigated (Table 2).

HeLa cells = test: DNA synthesis inhibition assay (BrdU), HeLa; assay type: cell-based; settings: 48 h, 5b 0.698, 5l 0.224, 5n 0.205, doxorubicin 14.280 µg/mL
Protocol: (§3) The BrdU cell proliferation method was performed to analyse the effects of the active compounds on proliferation of cancer cells. Cancer cells were seeded into the 96-well plates at a density of 1 × 10^4 cells. Compounds were added into the each well at three different concentrations (IC50/2, IC50 and 2xIC50) and the plates were incubated for 24 h. At the end of the incubation period, BrdU solution was added and cells were reincubated for 2 h at 37 °C. Anti-BrdU-POD ([…]) was added and the mixture was incubated for 90 min. Microplates were washed with PBS for three times. After adding substrate solution, the mixture was incubated for 15 min. OD of the wells were determined at 492 nm. Proliferation of control cells was assessed as 100% and growth inhibition % of cells, treated with test compounds and […] were calculated.
(§4) According to the MTT assay, compound 5n for A549 cell line; compounds 5a, 5d, 5e, 5o for MCF-7 cell line; compound 5k for C6 cell line; compound 5a for HepG2 cell line; compounds 5b, 5l and 5n for HeLa cell line were selected for the DNA synthesis inhibition assay. A549, C6, MCF-7, HepG2 and HeLa cells were incubated with three different concentrations (IC50/2, IC50, and […]) of the compounds for 24 and 48 h time periods. […] Doxorubicin was used as positive control.

HeLa cell line = test: Flow cytometric analysis (Annexin V/PI), HeLa; assay type: cell-based
Protocol: (§5) Death pathway of the carcinogenic cell lines was detected by Annexin V-FITC Apoptosis Detection Kit (BD, Pharmingen) as reported previously described. […] FCS Express software was used to display the percent of normal and apoptotic cells at different stages. […] The experiments were carried out in triplicates.
(§6) Annexin V/PI staining on tested cancer cells treated with the active compounds was performed to investigate induction of apoptosis. […] According to the MTT assay, compound 5n for A549 cell line; compounds 5a, 5d, 5e, 5o for MCF-7 cell line; compound 5k for C6 cell line; compound 5a for HepG2 cell line; compounds 5b, 5l and 5n for HeLa cell line were selected for the flow cytometric analysis. Furthermore, flow cytometry studies were performed for reference drug doxorubicin. Flow cytometric analysis diagrams of tested compounds and doxorubicin at IC50/2, IC50, and 2xIC50 concentrations on cancer cells were presented in Figures 7–11.

Topoisomerase I = molecular target: T1, Topoisomerase I (Homo sapiens, UniProt P11387); test: DNA topoisomerase I assay (relaxation of supercoiled plasmid DNA, agarose gel); assay type: biochemical; settings: agarose gel electrophoresis, camptothecin positive control, Figure 12
T1 construct: purchased TopoGen TG1018-2
T1 sequence (P11387 1-765): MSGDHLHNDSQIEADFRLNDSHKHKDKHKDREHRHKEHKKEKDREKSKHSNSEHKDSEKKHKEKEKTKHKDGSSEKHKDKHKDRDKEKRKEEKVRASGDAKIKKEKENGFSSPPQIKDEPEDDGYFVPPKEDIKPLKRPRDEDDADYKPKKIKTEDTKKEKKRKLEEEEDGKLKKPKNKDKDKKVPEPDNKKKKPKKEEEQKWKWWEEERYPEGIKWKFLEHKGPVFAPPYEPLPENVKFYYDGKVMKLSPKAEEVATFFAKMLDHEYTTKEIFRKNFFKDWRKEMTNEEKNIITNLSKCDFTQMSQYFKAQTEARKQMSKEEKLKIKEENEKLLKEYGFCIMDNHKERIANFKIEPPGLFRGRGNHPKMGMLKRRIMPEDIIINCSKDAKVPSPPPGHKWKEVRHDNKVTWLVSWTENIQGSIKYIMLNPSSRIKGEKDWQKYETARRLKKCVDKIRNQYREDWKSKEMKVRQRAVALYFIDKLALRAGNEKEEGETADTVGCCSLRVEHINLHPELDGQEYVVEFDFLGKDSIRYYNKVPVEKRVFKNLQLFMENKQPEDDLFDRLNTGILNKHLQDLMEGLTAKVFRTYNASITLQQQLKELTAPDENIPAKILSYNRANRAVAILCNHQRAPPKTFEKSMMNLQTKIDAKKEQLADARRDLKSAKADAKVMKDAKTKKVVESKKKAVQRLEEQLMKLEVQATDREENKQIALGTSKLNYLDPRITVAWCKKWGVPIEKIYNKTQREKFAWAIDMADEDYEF
Protocol: The topoisomerase I inhibition activities of final compounds were measured as relaxation of supercoiled plasmid DNA using agarose gel electrophoresis and camptothecin was used as a positive control. The assay was carried out in a final volume of 20 µl reaction volume containing 2 µl of 10xTGS Buffer, 6 µl water, 2 µl supercoiled plasmid DNA, 2 µl test compound, 2 µl of Top1, 2 ul 10% SDS, 2 µl proteinase K, 2 µl DNA loading dye. After incubation of reaction mixtures at 37 °C for 30 min, electrophoresis was done on a 1% agarose gel at a potential 50 V for 75 min using 1xTAE buffer.
To determine whether the DNA intercalation properties of compounds 5a, 5b, 5d, 5e, 5k, 5l, 5n and 5o might result in Topo I inhibition, agarose gel electrophores is assay was performed to evaluate the Topo I inhibitory activity of them via agarose-gel electrophoresis and CPT was used as the positive control. The TopoGEN Topoisomerase I Drug Screening Kit were optimised and implemented to accomplish this goal.
In a previous studies, it was said that the compounds poisoning topoisomerase caused the formation of nick bands in such gel appearances, while the formation of Supercoiled bands was said to be caused by catalytic inhibitors that bound to either DNA or enzyme[40]^,[41].

A549 cells = test: DNA synthesis inhibition assay (BrdU), A549; assay type: cell-based; settings: 48 h
Protocol: as §3, §4

A549 cell line = test: Flow cytometric analysis (Annexin V/PI), A549; assay type: cell-based; settings: at IC50 concentrations
Protocol: as §5, §6

MCF7 cells = test: DNA synthesis inhibition assay (BrdU), MCF7; assay type: cell-based, human; settings: 48 h, 5e at 7.318 µg/mL, doxorubicin at 10.525 µg/mL
Protocol: as §3, §4

HepG2 cells = test: DNA synthesis inhibition assay (BrdU), HepG2; assay type: cell-based, human; settings: 5a at 5.695 µg/mL, doxorubicin at 16.482 µg/mL
Protocol: as §3, §4

MCF-7 cell line = test: Flow cytometric analysis (Annexin V/PI), MCF-7; assay type: cell-based, human; settings: MCF-7 cells
Protocol: as §5, §6

C6 cell line = test: Flow cytometric analysis (Annexin V/PI), C6; assay type: cell-based, rat; settings: at IC50 concentrations
Protocol: as §5, §6

HepG2 cell line = test: Flow cytometric analysis (Annexin V/PI), HepG2; assay type: cell-based, human; settings: at IC50 concentrations, 24 h incubation
Protocol: as §5, §6

[7] = Homo sapiens, MCF7, MCF-7 cell line
[8] = 5n at 5.39 µg/mL, doxorubicin at 6.21 µg/mL
[9] = 5n at 7.39 µg/mL, doxorubicin at 12.42 µg/mL
[10] = 5n at 14.77 µg/mL, doxorubicin at 24.84 µg/mL

Topo I inhibition activity (Topoisomerase I) | SMILES | IC50 ([1]; Homo sapiens, A549, MTT assay) [µM] | IC50 [2, 7] [µM] | IC50 ([3]; Rattus norvegicus) [µM] | IC50 ([4]; Homo sapiens) [µM] | IC50 ([5]; Homo sapiens) [µM] | IC50 ([6]; Mus musculus) [µM] | % DNA synthesis inhibition (HeLa cells) [%] | percentage of apoptotic cells (HeLa cell line) [%] | % DNA synthesis inhibition (A549 cells; [8]) [%] | % DNA synthesis inhibition (A549 cells; [9]) [%] | % DNA synthesis inhibition (A549 cells; [10]) [%] | percentage of apoptotic cells (A549 cell line) [%] | other results
potent topo I inhibition activity | CCOc1ccc(-c2nc3ccc(-c4nnc(SCC(=O)N5CCN(CC)CC5)o4)cc3[nH]2)cc1 [5l, 2-((5-(2-(4-Ethoxyphenyl)-1H-benzo[d]imidazol-6-yl)-1,3,4-oxadiazol-2-yl)thio)-1–(4-ethyl-piperazin-1-yl)-ethane-1-on] | 31 ± 1.53 | ≥ 100 | ≥ 100 | ≥ 100 | 0.224 ± 0.011 | 113 ± 5.47 | 56.01 | 8.6 | – | – | – | – | –
potent topo I inhibition activity | CCOc1ccc(-c2nc3ccc(-c4nnc(SCC(=O)N5CCN(c6ccccn6)CC5)o4)cc3[nH]2)cc1 [5n] | – | – | – | – | – | – | 57.65 | 15.2 | 66.00 | 68.25 | 78.17 | 13 | IC50 ([1]; MTT assay): 7.39 ± 0.325 µM; IC50 ([2]; MCF-7 cell line): ≥ 100 µM; IC50 [3]: ≥ 100 µM; IC50 [4]: ≥ 100 µM; IC50 [5]: 0.205 ± 0.01 µM; IC50 [6]: 189 ± 8.73 µM
– | COc1cccc2c1C(=O)c1c(O)c3c(c(O)c1C2=O)C[C@@](O)(C(=O)CO)C[C@@H]3O[C@H]1C[C@H](N)[C@H](O)[C@H](C)O1 [Dox., doxorubicin, reference compound] | 12.4 ± 0.521 | 10.5 ± 0.472 | 28.7 ± 1.23 | 16.5 ± 0.804 | 14.3 ± 0.704 | 1111 ± 8.25 | – | – | 62.78 | 73.43 | 81.22 | 19.2 | % DNA synthesis inhibition (MCF7 cells): 84.60%; % DNA synthesis inhibition (HepG2 cells; 24 h): 42.80%; % DNA synthesis inhibition (HepG2 cells; 48 h): 74.22%; inhibition at 14.28 µg/mL (HeLa cells; Homo sapiens): 66.5%; percentage of apoptosis (early + late apoptotic cells) (MCF-7 cell line): 12.7%; percentage of apoptotic cells (C6 cell line): 13.7%; percentage of apoptotic cells (HepG2 cell line): 9.4%
